In patent US10973920B2, “Saccharide derivative of a toxic payload and antibody conjugates thereof” (priority 2014, dated 2021):
Values joined by “and” are separate entries in the source; they are usually repeats but may differ in a detail not shown here. Equal entries are not always repeated. Where a SMILES comes first, the peptide text is derived from it. [ ]: non-standard residue; d: D form. The star is where a group is joined. X1 = C[C@@H](N*)[C@@H](O[C@@H]1O[C@H](CO)[C@H](O)[C@H](O)[C@H]1O)c1ccccc1; Dolaproine = CO[C@@H]([C@@H]1CCCN1)[C@@H](C)C(=O)O; Dil = CC[C@H](C)[C@H](NC)[C@@H](CC(=O)O)OC; X2 = C[C@@H](N*)[C@@H](O)c1ccccc1; NMeV = CN[C@H](C(=O)O)C(C)C

System: cancer cells (SKOV-3 and HSC-2)
Assay: Cytotoxicity to cancer cells, PrestoBlue cell viability, 96 h
Details: for IC50: concentration wherein cancer cell viability falls to 50%, cell line not given
Method: Human ovarian cancer cell line SKOV-3 (ATCC, Manassas, Va., USA) and head-and-neck squamous cell carcinoma cell line HSC-2 (Japanese Collection of Research Bioresources, Osaka, Japan) were grown according to the suppliers' recommendations. Log phase cultures were collected and cells were seeded onto 96-well plates and incubated for 24 h. Serial dilutions of test molecules were added to cells and cultures were incubated further for 96 h. Cell viability was evaluated using PrestoBlue cell viability reagent (Life Technologies, Carlsbad, Calif., USA) according to the manufacturer's instructions. Cells were incubated for 2 h, and dye reduction was measured by absorbance at 570 nm. The compounds were assayed 1-2 times in triplicate.
The results are expressed in Table 1 as IC50 values.

SMILES	IC50	Cytotoxicity (in words) (concentrations up to 100 nM)
CC[C@H](C)[C@@H]([C@@H](CC(=O)N1CCC[C@H]1[C@H](OC)[C@@H](C)C(=O)N[C@H](C)[C@@H](O)c1ccccc1)OC)N(C)C(=O)[C@@H](NC(=O)[C@@H](NC)C(C)C)C(C)C [MMAE, monomethylauristatin E] (H-[NMeV]V[Dil][Dolaproine]-X2)	~10 nM and 10 nM	
CC[C@H](C)[C@@H]([C@@H](CC(=O)N1CCC[C@H]1[C@H](OC)[C@@H](C)C(=O)N[C@H](C)[C@@H](O[C@@H]1O[C@H](CO)[C@H](O)[C@H](O)[C@H]1O)c1ccccc1)OC)N(C)C(=O)[C@@H](NC(=O)[C@@H](NC)C(C)C)C(C)C [MMAG, O-β-D-galactopyranosylmonomethylauristatin E] (H-[NMeV]V[Dil][Dolaproine]-X1)	> 100 nM	relatively non-toxic
